Measured values as given in patent publication US20260373497A1, “MOLECULAR MACHINES STIMULATE INTERCELLULAR CALCIUM WAVES AND CAUSE MUSCLE CONTRACTION” (William Marsh Rice University, priority 2022, published 2026).

System: C2C12 myoblasts
Assay: ROS generation (CellROX green) in C2C12 myoblasts
Format: cell-based, mouse
Settings: MM 1 + light
Protocol: Additionally, to further confirm that the cellular calcium release is not the result of a photodynamic effect caused by reactive oxygen species (ROS) generation, ROS generation was measured from each MM using the ROS sensitive dye CellROX green. CellROX fluoresces when oxidized by ROS in living cells and can be used to measure general oxidative stress in cells due to ROS generation. […] To confirm that the ROS generated by MM 1 was not causing intracellular calcium release, cells were treated with a combination of thiourea (TU, 50 mM) and [COMPOUND LEFT OUT] (SA, 1.25 mM) to scavenge the ROS that were produced. […] If ROS generation by MM 1 was the cause of calcium release, then less calcium release would be expected with treatment of ROS scavengers.

SMILES: CC1Cc2ccc3ccccc3c2C1=C1c2ccccc2Sc2cc(NCCN(C)C)ccc21 (centres unmarked) [MM 1]
- ROS generation (CellROX green): generated more ROS than the DMSO negative control but less ROS than positive controls
- ROS generation with scavenger combination (with thiourea-containing scavenger combination (1× and 0.2×)): decrease in ROS generation
